One may read the Kd as the free concentration of one partner at which half of the binding sites on the other are occupied at equilibrium, for simple one-to-one binding.

What all share (type): binding
The target of experiment [1] is T1, MBP-ATXN3-Q28 (Homo sapiens, UniProt P54252, INS305QQQQQQQQQQQQQQQQQQ).
T1 construct: His8 with TEV protease cleavage site; made in house; host or cells: Escherichia coli Rosetta(DE3)pLsyS
The experiment in a line: MST affinity with MBP-ATXN3-Q28. How it is done: Protein concentration was 500 nM.

For experiment [2], the target named is T2, full-length mHTT (flHTT-Q73) (Homo sapiens, UniProt P42858, INS38QQQQQQQQQQQQQQQQQQQQQQQQQQQQQQQQQQQQQQQQQQQQQQQQQQQQ).
T2 construct: LC3B, full-length mHTT (flHTT-Q73) and full-length HTT-Q23 (flHTT-Q23); protein A (N, cleaved yes); made in house; host or cells: human embryonic kidney E293 cells
T2 sequence (P42858 with tags, fused parts or gaps with the stated changes): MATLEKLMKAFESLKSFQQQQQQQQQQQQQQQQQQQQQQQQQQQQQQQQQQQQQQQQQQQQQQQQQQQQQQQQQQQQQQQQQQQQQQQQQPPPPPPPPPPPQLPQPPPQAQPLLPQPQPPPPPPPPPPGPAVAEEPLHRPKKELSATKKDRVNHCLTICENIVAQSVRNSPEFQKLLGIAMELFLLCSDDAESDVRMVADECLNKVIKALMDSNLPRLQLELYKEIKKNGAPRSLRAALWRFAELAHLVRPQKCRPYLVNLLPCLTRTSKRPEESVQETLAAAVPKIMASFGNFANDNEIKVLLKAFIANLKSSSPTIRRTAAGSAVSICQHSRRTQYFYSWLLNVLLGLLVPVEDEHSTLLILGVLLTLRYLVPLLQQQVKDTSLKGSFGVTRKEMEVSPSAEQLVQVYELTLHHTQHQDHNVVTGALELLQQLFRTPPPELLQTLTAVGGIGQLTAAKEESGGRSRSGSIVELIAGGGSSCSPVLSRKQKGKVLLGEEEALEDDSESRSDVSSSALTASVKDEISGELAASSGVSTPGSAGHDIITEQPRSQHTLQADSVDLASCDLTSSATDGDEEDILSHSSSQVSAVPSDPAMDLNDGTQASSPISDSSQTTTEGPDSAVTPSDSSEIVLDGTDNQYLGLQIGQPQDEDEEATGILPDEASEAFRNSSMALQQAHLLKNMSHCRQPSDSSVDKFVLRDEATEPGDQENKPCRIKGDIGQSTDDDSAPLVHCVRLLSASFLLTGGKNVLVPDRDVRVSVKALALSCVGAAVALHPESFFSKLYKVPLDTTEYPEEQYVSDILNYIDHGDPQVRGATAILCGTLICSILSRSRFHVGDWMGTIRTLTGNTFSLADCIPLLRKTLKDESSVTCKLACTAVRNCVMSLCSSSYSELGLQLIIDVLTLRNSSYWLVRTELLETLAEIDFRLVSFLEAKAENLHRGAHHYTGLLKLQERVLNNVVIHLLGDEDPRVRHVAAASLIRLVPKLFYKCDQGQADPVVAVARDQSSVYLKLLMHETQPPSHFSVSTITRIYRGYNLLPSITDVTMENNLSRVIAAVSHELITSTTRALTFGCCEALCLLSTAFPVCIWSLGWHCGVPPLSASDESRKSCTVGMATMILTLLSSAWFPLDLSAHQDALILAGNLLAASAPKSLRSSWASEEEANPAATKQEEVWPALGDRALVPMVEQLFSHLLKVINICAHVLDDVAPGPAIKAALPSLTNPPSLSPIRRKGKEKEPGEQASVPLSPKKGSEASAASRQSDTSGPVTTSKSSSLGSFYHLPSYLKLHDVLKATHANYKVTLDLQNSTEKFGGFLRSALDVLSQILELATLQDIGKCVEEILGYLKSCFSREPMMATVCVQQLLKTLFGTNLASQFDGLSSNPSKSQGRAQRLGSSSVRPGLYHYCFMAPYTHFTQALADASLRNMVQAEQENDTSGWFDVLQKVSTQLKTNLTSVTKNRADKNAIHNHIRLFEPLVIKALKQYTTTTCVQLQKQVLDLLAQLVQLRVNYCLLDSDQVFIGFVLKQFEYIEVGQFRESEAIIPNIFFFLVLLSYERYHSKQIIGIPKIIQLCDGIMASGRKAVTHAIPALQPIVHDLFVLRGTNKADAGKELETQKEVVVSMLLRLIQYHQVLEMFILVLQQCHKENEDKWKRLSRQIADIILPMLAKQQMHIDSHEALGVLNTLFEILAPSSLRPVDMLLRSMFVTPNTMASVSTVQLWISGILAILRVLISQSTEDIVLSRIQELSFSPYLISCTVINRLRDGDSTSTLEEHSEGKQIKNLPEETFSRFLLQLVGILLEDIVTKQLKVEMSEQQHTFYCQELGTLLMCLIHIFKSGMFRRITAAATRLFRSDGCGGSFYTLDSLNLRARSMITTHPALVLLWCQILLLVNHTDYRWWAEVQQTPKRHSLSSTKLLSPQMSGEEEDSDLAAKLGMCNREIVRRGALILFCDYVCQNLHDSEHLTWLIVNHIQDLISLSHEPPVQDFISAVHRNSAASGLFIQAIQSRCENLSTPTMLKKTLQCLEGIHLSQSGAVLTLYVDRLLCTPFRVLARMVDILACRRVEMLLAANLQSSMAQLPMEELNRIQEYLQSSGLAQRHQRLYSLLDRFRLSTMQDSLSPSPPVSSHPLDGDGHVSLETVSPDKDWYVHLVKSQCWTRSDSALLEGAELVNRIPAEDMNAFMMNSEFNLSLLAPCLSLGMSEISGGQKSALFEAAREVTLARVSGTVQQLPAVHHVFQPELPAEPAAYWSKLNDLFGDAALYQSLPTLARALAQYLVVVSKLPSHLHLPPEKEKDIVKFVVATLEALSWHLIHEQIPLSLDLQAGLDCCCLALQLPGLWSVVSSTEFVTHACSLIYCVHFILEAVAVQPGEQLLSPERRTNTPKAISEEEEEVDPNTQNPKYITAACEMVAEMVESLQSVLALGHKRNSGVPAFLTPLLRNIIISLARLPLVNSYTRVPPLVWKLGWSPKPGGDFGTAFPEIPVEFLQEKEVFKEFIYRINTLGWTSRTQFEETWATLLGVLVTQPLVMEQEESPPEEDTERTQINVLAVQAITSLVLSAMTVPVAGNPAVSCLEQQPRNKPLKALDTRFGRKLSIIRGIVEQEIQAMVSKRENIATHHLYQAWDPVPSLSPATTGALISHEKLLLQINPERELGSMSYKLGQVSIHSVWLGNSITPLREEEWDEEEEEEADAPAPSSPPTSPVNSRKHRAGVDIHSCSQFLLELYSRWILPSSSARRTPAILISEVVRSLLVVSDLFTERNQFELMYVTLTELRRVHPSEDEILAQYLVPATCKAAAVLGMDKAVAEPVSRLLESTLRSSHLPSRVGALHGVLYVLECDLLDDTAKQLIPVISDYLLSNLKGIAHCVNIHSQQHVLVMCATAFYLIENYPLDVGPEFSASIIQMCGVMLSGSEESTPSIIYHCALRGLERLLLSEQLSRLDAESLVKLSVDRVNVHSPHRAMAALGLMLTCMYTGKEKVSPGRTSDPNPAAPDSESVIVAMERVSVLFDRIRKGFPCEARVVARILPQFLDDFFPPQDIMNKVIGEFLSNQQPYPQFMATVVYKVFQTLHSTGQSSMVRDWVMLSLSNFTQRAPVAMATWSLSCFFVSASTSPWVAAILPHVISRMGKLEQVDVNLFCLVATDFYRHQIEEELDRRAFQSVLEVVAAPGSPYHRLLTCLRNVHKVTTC
Nature of the experiment: OI-RD affinity reaction parameters with flHTT-Q73. To be noted: OI-RD, flHTT-Q73. The text has this:
Each compound was printed in triplicates on the microarray. 01-RD was used to measure the affinity reaction parameters of the compound with LC3B, full-length mHTT (flHTT-Q73) and full-length HTT-Q23 (flHTT-Q23).

Experiment [3] deals with Q25-GFP. Nature of the experiment: OI-RD affinity screening with Q25-GFP. The settings on record: OI-RD difference images. The source says: (1) PolyQ-GFP cDNA sequence (expressing Met-polyQ-GFP, wherein polyQ was Q72 or Q25) was synthesized de novo and subcloned into pcDNA vector. […] And the same method was used to obtain cells expressing Q53-GFP, cells expressing Q46-GFP, and cells expressing Q38-GFP.

T1 sequence (P54252 with tags, fused parts or gaps isoform P54252-4 with the stated changes): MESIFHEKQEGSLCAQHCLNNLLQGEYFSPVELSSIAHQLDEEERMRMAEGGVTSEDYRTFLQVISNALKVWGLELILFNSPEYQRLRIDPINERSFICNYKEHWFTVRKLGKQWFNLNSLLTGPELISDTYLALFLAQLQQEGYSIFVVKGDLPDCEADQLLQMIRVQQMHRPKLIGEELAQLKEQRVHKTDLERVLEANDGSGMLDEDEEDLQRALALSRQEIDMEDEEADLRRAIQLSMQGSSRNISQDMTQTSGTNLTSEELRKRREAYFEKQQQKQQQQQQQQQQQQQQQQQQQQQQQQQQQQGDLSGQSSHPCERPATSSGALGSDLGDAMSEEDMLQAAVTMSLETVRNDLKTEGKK

On to `O=C1Nc2ccc(I)cc2/C1=C/c1cc(Br)c(O)c(Br)c1` [compound 1, GW5074], for which the “binding affinity with normal ATXN3 protein (MBP-ATXN3-Q28)” value in experiment [1] is recorded as “no binding affinity”. Also, in experiment [2], the Koff worked out at 0.000133 s⁻¹ and the Kon came to 5.43e-05 min/nM. In addition, in experiment [2] (read-out: Kd), the equilibrium dissociation constant (Kd) turned out to be 14.7 nM. Besides, the “binding to Q25-GFP” value in experiment [3] is reported as “did not bind”.

(Values after patent US20220170930A1, “METHOD FOR SCREENING COMPOUND FOR TREATING OR PREVENTING POLYQ-RELATED NEURODEGENERATIVE DISEASES” (FUDAN UNIVERSITY, priority 2019, published 2022).)
